Assay [1] deals with T1, APE-1 (Homo sapiens, UniProt P27695). Put plainly: Gel-based assay for APE-1 inhibitors. Type of assay: biochemical. The conditions noted are these: in gel excision assay; 20 nM APE-1, 100 nM duplex DNA with THF abasic site.
Assay [2] deals with APE-1 activity in T98G cell nuclear lysates (Homo sapiens, UniProt P27695). The experiment in a line: Molecular beacon assay with T98G cell nuclear lysates. The conditions noted are these: EC2nM APE-1 activity. Type of assay: biochemical.
The subject of assay [3] is self-complementary sequence 5′-GAGAGCGCTCTC
The experiment in a line: UV melting, self-complementary DNA. The assay is classed as binding. The conditions noted are these: TM without compound 36.4 °C.

The test system of assay [4] is hairpin with the THF abasic site. Put plainly: UV melting, hairpin with THF abasic site. Type of assay: binding.
The subject of assay [5] is T98G cells. The experiment in a line: Short term. The assay is classed as cell-based, human. As to conditions: for LD10 concentration: 72 h MTS assay.
In assay [6] the test system is T98G cells. The experiment in a line: Long term. The assay is classed as cell-based, human.
Assay [7] has as its system T98G cells. Put plainly: Potentiation of MeLex cytotoxicity, short-term. The assay is classed as cell-based, human. The conditions noted are these: for LD50 of MeLex in the presence of LD10 concentration of inhibitor: 72 h MTS assay, MeLex by itself 267 μM.
Assay [8] concerns T98G cells. The experiment in a line: Potentiation of MeLex cytotoxicity, long term. Type of assay: cell-based, human. As to conditions: long term assay; for LD50 of MeLex in the presence of LD10 concentration of inhibitor: MeLex alone 9.9 μM.
Assay [9] relates to T98G cells. Put plainly: Quantification of abasic sites. The conditions noted are these: for level of ARS in combination with MeLex: 80 μM MeLex + 0.25 μM compound, through at least 12 h; for level of aldehyde reactive sites (ARS): 0.25 μM compound alone, up to 18 h, background 1/10^5 nucleotides.
Assay [10] concerns VERA kidney cell line. As to conditions: read-out: IC50 for the toxicity; cited from earlier work.
The target in assay [11] is T1, APE-1. Put plainly: Molecular beacon assay for APE-1 endonuclease inhibition. Type of assay: biochemical. As to conditions: endonuclease activity; cells printed ND.
Assay [12] deals with T1, APE-1. The experiment in a line: Fluorescence binding of 4 to APE-1 and displacement by E3330. As to conditions: displacement of 6 μM 4 from 1 μM APE-1.
In assay [13] the test system is APE-1 endonuclease activity. The conditions noted are these: at 100 μM concentration; cited from earlier work.
In assay [14] the test system is APE-1 redox. As to conditions: read-out: IC50 for redox inhibition; cited from earlier work.
Assay [15] has as its system HEYC-2 ovarian tumor cells. As to conditions: read-out: IC50 for cell growth; cited from earlier work.
For assay [16], the system named is SKOV-3X ovarian tumor cells. The conditions noted are these: read-out: IC50 for cell growth; cited from earlier work.
The target in assay [17] is unmodified hairpin DNA. The experiment in a line: EtBr fluorescence titration with unmodified hairpin DNA. Type of assay: binding. As to conditions: unmodified hairpin DNA (data not shown).
The target of assay [18] is THF modified hairpin DNA. The experiment in a line: EtBr fluorescence titration with THF modified hairpin DNA. The assay is classed as binding. The conditions noted are these: THF modified hairpin DNA (data not shown).
Assay [19] addresses double-stranded DNA. As to conditions: cited from earlier work.
Assay [20] concerns DNA with a bulge. As to conditions: cited from earlier work.

These results are taken from PMC3448856 (Biochemistry, 2012).

Several values for one entry are separate records, joined by “and”; a condition that tells them apart may be missing. Identical values can stand only once. Peptide text beside a SMILES is read from it. * marks the point of attachment. Tos = Cc1ccc(S(=O)(=O)*)cc1; Bn = c1ccc(C*)cc1

Broadly, the IC50 is the concentration that gives 50% inhibition. One may read the Ki as a measure of affinity in units of concentration, obtained from inhibition or displacement. Low readings indicate tighter binding, high ones weaker binding. Broadly, the Kd is the free concentration of one partner at which half of the binding sites on the other are occupied at equilibrium, for simple one-to-one binding.

T1 sequence (P27695 whole entry): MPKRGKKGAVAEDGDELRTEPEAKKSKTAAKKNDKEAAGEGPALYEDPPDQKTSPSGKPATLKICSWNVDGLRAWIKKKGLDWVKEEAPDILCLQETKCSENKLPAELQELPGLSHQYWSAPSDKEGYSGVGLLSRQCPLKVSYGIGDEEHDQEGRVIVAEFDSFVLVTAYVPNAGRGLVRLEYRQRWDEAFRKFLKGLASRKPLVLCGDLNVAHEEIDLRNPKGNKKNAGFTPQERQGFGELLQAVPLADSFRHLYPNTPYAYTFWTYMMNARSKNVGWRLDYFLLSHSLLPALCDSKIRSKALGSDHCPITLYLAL
Chain of APE-1 activity in T98G cell nuclear lysates (P27695 whole entry, stated change not applied): as the sequence (P27695 whole entry) above

`C/C(=N\Nc1cc(C)nc2cc3c(cc12)OCO3)c1cn(C)n(-c2ccccc2)c1=O` [Compound 1]: the IC50 in assay [1] came to 4.4 µM. The same compound came in with a Ki in [2] of 0.45 µM. Further, the “TM of DNA in presence of compound” value in assay [3] was determined as 40.8 °C. In [4], the “increase in stability (TM) of hairpin” value was more than 9 °C. For the same compound, the LD10 concentration in [5] came to 2.20 µM; in assay [6] (long term assay), 0.17 µM. Besides, the “LD50 of MeLex in the presence of LD10 concentration of inhibitor” value (from here on “LD50 of MeLex in the presence … of inhibitor”) turned out to be 54 µM in [7] and 2.0 µM in assay [8]. Also, the “level of ARS in combination with MeLex” value in assay [9] is recorded as 50 sites/10^5 nucleotides.

For `COc1cccc(/C=N/Nc2cc(C)nc3cc4c(cc23)OCO4)c1` [Compound 2], in [1], the IC50 worked out at 10.1 µM. In [2], this compound had a Ki of 0.24 µM.

As for `Cc1cc(N/N=C/c2ccc3c(c2)OCO3)c2cc3c(cc2n1)OCO3` [Compound 3], the IC50 is 2.9 µM in assay [1] and 0.63 µM in [10].

In turn, `CCn1c2ccccc2c2cc(/C=N/Nc3cc(C)nc4cc5c(cc34)OCO5)ccc21` [Compound 4] displayed an IC50 in assay [1] of 4.1 µM. Moreover, the affinity in assay [2] corresponds to a Ki of 0.21 µM. For the same compound, the “TM of DNA in presence of compound” value in assay [3] is 37.3 °C. In addition, the “increase in stability (TM) of hairpin” value in [4] is recorded as “not appreciably”. Further, the LD50 stood at 0.96 µM in assay [5] (3-day MTS assay) and 0.19 µM in assay [6] (long term (10-day) assay, called clonogenic). Moreover, the LD10 concentration in assay [5] stood at 0.25 µM; in assay [6] (long term assay), 0.08 µM. Further, the “LD50 of MeLex in the presence … of inhibitor” value in [7] is 49 µM; in assay [8], 1.6 µM. For the same compound, in assay [7] (short term assay, LD10 concentration of inhibitor), the “potentiation of MeLex toxicity (fold more sensitive)” value is recorded as “approximately 5 fold”. Further, the “potentiation of MeLex toxicity” value in [8] (LD10 concentration of inhibitor) is “approximately 5 fold”. Moreover, in assay [9], the “level of aldehyde reactive sites (ARS)” value is recorded as “approximately 17 ARS/10^5 nucleotides”. The “level of ARS in combination with MeLex” value in [9] was determined as 63 sites/10^5 nucleotides.

`Cc1cc(N/N=C/c2c(C)n(C)n(-c3ccccc3)c2=O)c2cc3c(cc2n1)OCO3` [Compound 5] registered an IC50 in [1] of 34.4 µM. Also, the affinity in [2] corresponds to a Ki of 1.41 µM. The values for the LD10 concentration in assay [5] and in [6] (long term assay) were 6.50 µM and 0.90 µM, respectively. For the same compound, the “fold less toxic than 4” value in assay [5] (assay (short or long term) not stated) is approximately 20 fold. The “LD50 of MeLex in the presence … of inhibitor” value was 80 µM in assay [7] and 3.6 µM in [8]. In addition, in [9] (0.25 μM compound), the “increase in ARS above background” value is listed as “approximately 4 fold”.

As to `COc1ccc2c(C)cc(N/N=C(\C)c3cn(C)n(-c4ccccc4)c3=O)nc2c1` [Compound 8], the Ki in [11] is more than 100 µM. The compound also displayed an IC50 in assay [1] of more than 100 µM. Besides, the “level of aldehyde reactive sites (ARS)” value in assay [9] is “same as background”.

Take `O=C(NNc1ccnc2cc(Cl)ccc12)/C(=C/c1ccccc1Cl)NC(=O)c1ccccc1` [Compound 15]: the Ki in [11] is more than 100 µM.

As for `Nc1ncnc2c1ncn2C1OC(C(=O)NCC(=O)O)C(O)C1O` (stereo not drawn) [Compound 16], the Ki in [11] was more than 100 µM.

In the case of `CC(N)C(=O)NC1C(CO)OC(n2cnc3c(N)ncnc32)C1O` (stereo not drawn) [Compound 17], the Ki in [11] is more than 100 µM.

In assay [11], `CNC(=O)Oc1cc([N+](C)(C)C)ccc1C` [Compound 21] had a Ki of more than 100 µM.

Regarding `CC(NC(=O)/C(=C\c1ccccc1)NC(=O)c1ccccc1)c1ccccc1` (stereo not drawn) [Compound 22], the Ki in assay [11] is more than 100 µM.

For `Cc1ccc(S(=O)(=O)NC(CSCc2ccccc2)C(=O)NC(Cc2ccc(O)cc2)C(=O)O)cc1` (stereo not drawn) [Compound 25] (Tos-Cys(Bn)-Tyr-OH; configuration not given here), the inhibition constant Ki in assay [11] was more than 100 µM.

As for `CCOC(=O)CC/C(=C\NC(=O)c1ccccc1)NC(=O)c1ccccc1` [Compound 26], the Ki in [11] was more than 100 µM.

For the compound `CCCCCCCCC/C(=C\C1=C(C)C(=O)C(OC)=C(OC)C1=O)C(=O)O` [Compound E3330, (2E)-2-[(4,5-dimethoxy-2-methyl-3,6-dioxo-1,4-cyclohexadien-1-yl)methylene]undecanoic acid], the “E3330 concentration for approximately 50% decrease in the fluorescence of 4” value in assay [12] is on record as “approximately 12 μM”. The “LD50 of MeLex in the presence … of inhibitor” value in assay [7] was 128 µM; in [8], “little or no contribution”. In addition, in assay [13], the “inhibition of APE-1 endonuclease activity” value is given as 3 fold. In addition, the IC50 is 10 µM in assay [14], approximately 35 µM in [15] and approximately 35 µM in [16]. Moreover, the “level of aldehyde reactive sites (ARS)” value in [9] is on record as “returned to control levels by 18 h”. Moreover, the “level of ARS in combination with MeLex” value in assay [9] is on record as “dropped off”.

Take `CC[n+]1c(-c2ccccc2)c2cc(N)ccc2c2ccc(N)cc21` [EtBr, ethidium bromide]: the values for the Kd in assay [17], in assay [18] and in [19] were 1.6 µM, 1.8 µM and approximately 1 µM, respectively. The “stronger binding to DNA with a bulge than to double-stranded DNA” value in assay [20] is approximately 10 fold. Moreover, the “level of aldehyde reactive sites (ARS)” value in assay [9] was “no affect”. For the same compound, the “level of ARS in combination with MeLex” value in assay [9] is reported as “dropped off”.

On to “methyl 3-(1-methyl-5-(1-methyl-5-(propylcarbamoyl)-1H-pyrrol-3-ylcarbamoyl)-1H-pyrrol-3-ylamino)-3-oxopropane-1-sulfonate [MeLex, reference compound]”, for which the LD50 is 250 µM and 267 µM in assay [5] (short term (72 h) MTS assay, compound alone); 12 µM and 9.9 µM in assay [6] (long term assay, compound alone). Besides, the “induction of ARS” value in assay [9] (80 μM MeLex, through the first 4 h) is 36 /10^5 nucleotides.
